From the supplement of paper PMC10883282
± gives the standard deviation of the averaged measurements.

Columns and labels:
Test in all cases: relative viability vs DMSO control (72 h) (fraction); higher = more viable cells
SK-LMS-1 = system: SK-LMS-1
Summary of the method: (§1)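 After seeding at densities set for 80–90% confluence in 384-well plates, sarcoma cell lines waited 24 h before 2.5 µl of serially diluted compound was added. Source plates held 10 mM down to 0.0002 mM. Plates were incubated 72 h at 37 °C with 5% CO2, with 0.1% DMSO vehicle and a 5 µM positive control, and relative viability was taken from ATPLite as percent growth averaged over up to triplicate wells, with 1 set as full and 0 as none.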

G401 = system: G401
Summary of the method: as §1

RD-ES = system: RD-ES
Summary of the method: as §1

KHOS-NP = system: KHOS-NP
Summary of the method: as §1

SW872 = system: SW872
Summary of the method: as §1

MES-SA = system: MES-SA
Summary of the method: as §1

VA-ES-BJ = system: VA-ES-BJ
Summary of the method: as §1

SW1353 = system: SW1353
Summary of the method: as §1

HT1080 = system: HT1080
Summary of the method: as §1

RD = system: RD
Summary of the method: as §1

SW684 = system: SW684
Summary of the method: as §1

SK-ES-1 = system: SK-ES-1
Summary of the method: as §1

SMILES: O=C(c1ccc(F)c(F)c1Nc1ccc(I)cc1F)N1CC(O)([C@@H]2CCCCN2)C1 [Cobimetinib]
- relative viability (SK-LMS-1; 0.00017 µM): 1.06 ± 0.049
- relative viability (SK-LMS-1; 0.00051 µM): 1.09 ± 0.019
- relative viability (SK-LMS-1; 0.00152 µM): 1.05 ± 0.059
- relative viability (SK-LMS-1; 0.00457 µM): 1.02 ± 0.032
- relative viability (SK-LMS-1; 0.01372 µM): 0.989 ± 0.041
- relative viability (SK-LMS-1; 0.04115 µM): 0.767 ± 0.0095
- relative viability (SK-LMS-1; 0.1235 µM): 0.584 ± 0.011
- relative viability (SK-LMS-1; 0.3704 µM): 0.398 ± 0.02
- relative viability (SK-LMS-1; 1.111 µM): 0.299 ± 0.012
- relative viability (SK-LMS-1; 3.333 µM): 0.1728 ± 0.0017
- relative viability (SK-LMS-1; 10 µM): 0.0129 ± 0.0027
- relative viability (G401; 0.00017 µM): 0.99 ± 0.051
- relative viability (G401; 0.00051 µM): 1.03 ± 0.02
- relative viability (G401; 0.00152 µM): 0.993 ± 0.013
- relative viability (G401; 0.00457 µM): 0.99 ± 0.024
- relative viability (G401; 0.01372 µM): 0.951 ± 0.034
- relative viability (G401; 0.04115 µM): 0.896 ± 0.021
- relative viability (G401; 0.1235 µM): 0.786 ± 0.022
- relative viability (G401; 0.3704 µM): 0.643 ± 0.026
- relative viability (G401; 1.111 µM): 0.396 ± 0.019
- relative viability (G401; 3.333 µM): 0.0971 ± 0.007
- relative viability (G401; 10 µM): 0.0011 ± 0.001
- relative viability (RD-ES; 0.00017 µM): 0.999 ± 0.026
- relative viability (RD-ES; 0.00051 µM): 1.02 ± 0.015
- relative viability (RD-ES; 0.00152 µM): 0.985 ± 0.022
- relative viability (RD-ES; 0.00457 µM): 0.986 ± 0.02
- relative viability (RD-ES; 0.01372 µM): 0.945 ± 0.015
- relative viability (RD-ES; 0.04115 µM): 0.979 ± 0.019
- relative viability (RD-ES; 0.1235 µM): 0.955 ± 0.018
- relative viability (RD-ES; 0.3704 µM): 0.982 ± 0.011
- relative viability (RD-ES; 1.111 µM): 0.974 ± 0.016
- relative viability (RD-ES; 3.333 µM): 0.91 ± 0.056
- relative viability (RD-ES; 10 µM): 0.0147 ± 0.0016
- relative viability (KHOS-NP; 0.00017 µM): 1.09 ± 0.026
- relative viability (KHOS-NP; 0.00051 µM): 1.097 ± 0.0056
- relative viability (KHOS-NP; 0.00152 µM): 1.085 ± 0.0066
- relative viability (KHOS-NP; 0.00457 µM): 1.081 ± 0.0044
- relative viability (KHOS-NP; 0.01372 µM): 1.08 ± 0.014
- relative viability (KHOS-NP; 0.04115 µM): 0.912 ± 0.042
- relative viability (KHOS-NP; 0.1235 µM): 0.438 ± 0.024
- relative viability (KHOS-NP; 0.3704 µM): 0.319 ± 0.012
- relative viability (KHOS-NP; 1.111 µM): 0.275 ± 0.012
- relative viability (KHOS-NP; 3.333 µM): 0.28 ± 0.013
- relative viability (KHOS-NP; 10 µM): 0.187 ± 0.0053
- relative viability (SW872; 0.00017 µM): 1.06 ± 0.06
- relative viability (SW872; 0.00051 µM): 1.01 ± 0.03
- relative viability (SW872; 0.00152 µM): 0.923 ± 0.063
- relative viability (SW872; 0.00457 µM): 0.775 ± 0.049
- relative viability (SW872; 0.01372 µM): 0.67 ± 0.01
- relative viability (SW872; 0.04115 µM): 0.622 ± 0.024
- relative viability (SW872; 0.1235 µM): 0.606 ± 0.035
- relative viability (SW872; 0.3704 µM): 0.574 ± 0.018
- relative viability (SW872; 1.111 µM): 0.498 ± 0.016
- relative viability (SW872; 3.333 µM): 0.39 ± 0.035
- relative viability (SW872; 10 µM): 0.00283 ± 0.0013
- relative viability (MES-SA; 0.00017 µM): 0.934 ± 0.05
- relative viability (MES-SA; 0.00051 µM): 0.948 ± 0.05
- relative viability (MES-SA; 0.00152 µM): 0.925 ± 0.027
- relative viability (MES-SA; 0.00457 µM): 0.899 ± 0.027
- relative viability (MES-SA; 0.01372 µM): 0.896 ± 0.038
- relative viability (MES-SA; 0.04115 µM): 0.824 ± 0.038
- relative viability (MES-SA; 0.1235 µM): 0.786 ± 0.019
- relative viability (MES-SA; 0.3704 µM): 0.752 ± 0.027
- relative viability (MES-SA; 1.111 µM): 0.721 ± 0.017
- relative viability (MES-SA; 3.333 µM): 0.6391 ± 0.0033
- relative viability (MES-SA; 10 µM): 0.0114 ± 0.001
- relative viability (VA-ES-BJ; 0.00017 µM): 1.05 ± 0.032
- relative viability (VA-ES-BJ; 0.00051 µM): 1.07 ± 0.048
- relative viability (VA-ES-BJ; 0.00152 µM): 1.05 ± 0.027
- relative viability (VA-ES-BJ; 0.00457 µM): 1.02 ± 0.033
- relative viability (VA-ES-BJ; 0.01372 µM): 0.982 ± 0.043
- relative viability (VA-ES-BJ; 0.04115 µM): 0.906 ± 0.036
- relative viability (VA-ES-BJ; 0.1235 µM): 0.747 ± 0.15
- relative viability (VA-ES-BJ; 0.3704 µM): 0.638 ± 0.15
- relative viability (VA-ES-BJ; 1.111 µM): 0.567 ± 0.089
- relative viability (VA-ES-BJ; 3.333 µM): 0.451 ± 0.12
- relative viability (VA-ES-BJ; 10 µM): 0.209 ± 0.025
- relative viability (SW1353; 0.00017 µM): 0.989 ± 0.018
- relative viability (SW1353; 0.00051 µM): 0.983 ± 0.028
- relative viability (SW1353; 0.00152 µM): 1 ± 0.018
- relative viability (SW1353; 0.00457 µM): 0.979 ± 0.033
- relative viability (SW1353; 0.01372 µM): 0.899 ± 0.05
- relative viability (SW1353; 0.04115 µM): 0.838 ± 0.059
- relative viability (SW1353; 0.1235 µM): 0.778 ± 0.027
- relative viability (SW1353; 0.3704 µM): 0.704 ± 0.042
- relative viability (SW1353; 1.111 µM): 0.669 ± 0.036
- relative viability (SW1353; 3.333 µM): 0.617 ± 0.051
- relative viability (SW1353; 10 µM): 0.0141 ± 0.0011
- relative viability (HT1080; 0.00017 µM): 1.07 ± 0.015
- relative viability (HT1080; 0.00051 µM): 1.087 ± 0.0045
- relative viability (HT1080; 0.00152 µM): 1.067 ± 0.0094
- relative viability (HT1080; 0.00457 µM): 1.049 ± 0.01
- relative viability (HT1080; 0.01372 µM): 1.06 ± 0.021
- relative viability (HT1080; 0.04115 µM): 0.876 ± 0.028
- relative viability (HT1080; 0.1235 µM): 0.586 ± 0.032
- relative viability (HT1080; 0.3704 µM): 0.4917 ± 0.0027
- relative viability (HT1080; 1.111 µM): 0.39 ± 0.019
- relative viability (HT1080; 3.333 µM): 0.247 ± 0.022
- relative viability (HT1080; 10 µM): 0.0054 ± 0.00072
- relative viability (RD; 0.00017 µM): 1.1 ± 0.017
- relative viability (RD; 0.00051 µM): 1.1 ± 0.025
- relative viability (RD; 0.00152 µM): 1.07 ± 0.038
- relative viability (RD; 0.00457 µM): 1.02 ± 0.047
- relative viability (RD; 0.01372 µM): 0.88 ± 0.035
- relative viability (RD; 0.04115 µM): 0.766 ± 0.025
- relative viability (RD; 0.1235 µM): 0.636 ± 0.0091
- relative viability (RD; 0.3704 µM): 0.539 ± 0.019
- relative viability (RD; 1.111 µM): 0.461 ± 0.075
- relative viability (RD; 3.333 µM): 0.346 ± 0.083
- relative viability (RD; 10 µM): 0.0053 ± 0.001
- relative viability (SW684; 0.00017 µM): 1.23 ± 0.051
- relative viability (SW684; 0.00051 µM): 1.15 ± 0.021
- relative viability (SW684; 0.00152 µM): 1.17 ± 0.051
- relative viability (SW684; 0.00457 µM): 1.2 ± 0.061
- relative viability (SW684; 0.01372 µM): 1.13 ± 0.045
- relative viability (SW684; 0.04115 µM): 1.063 ± 0.0065
- relative viability (SW684; 0.1235 µM): 0.941 ± 0.015
- relative viability (SW684; 0.3704 µM): 0.738 ± 0.022
- relative viability (SW684; 1.111 µM): 0.536 ± 0.013
- relative viability (SW684; 3.333 µM): 0.357 ± 0.016
- relative viability (SW684; 10 µM): -0.00433 ± 0.0021
- relative viability (SK-ES-1; 0.00017 µM): 1.04 ± 0.073
- relative viability (SK-ES-1; 0.00051 µM): 1 ± 0.035
- relative viability (SK-ES-1; 0.00152 µM): 1.04 ± 0.021
- relative viability (SK-ES-1; 0.00457 µM): 1.03 ± 0.032
- relative viability (SK-ES-1; 0.01372 µM): 1.04 ± 0.037
- relative viability (SK-ES-1; 0.04115 µM): 1.01 ± 0.029
- relative viability (SK-ES-1; 0.1235 µM): 1.02 ± 0.06
- relative viability (SK-ES-1; 0.3704 µM): 0.982 ± 0.035
- relative viability (SK-ES-1; 1.111 µM): 0.923 ± 0.052
- relative viability (SK-ES-1; 3.333 µM): 0.842 ± 0.03
- relative viability (SK-ES-1; 10 µM): 0.0122 ± 0.00045
